The test relates to isolierter Meerschweinchen-Herzvorhöfe. Briefly: Effect on contraction amplitude of isolated guinea pig heart atria. Particulars: Wirkstoffkonzentration 10⁻³ g/l, read-out: Substanzeffekte auf die Kontraktionsamplitude, Änderung in %.

`CCCCCCCCCCOC(=O)C1=C(C)NC(C)=C([N+](=O)[O-])C1c1ccccc1OC(F)F` (racemic) [Beispiel 1, 4-(2-Difluormethoxyphenyl)-1,4-dihydro-2,6-dimethyl-3-nitro-pyridin-5-carbonsäure-decylester]: the activation at 1 µg/mL is 45%.

These data come from patent EP0315019A2, “Fluoromethoxyphenyl-dihydropyridines, process for their preparation and their use in drugs” (BAYER AG, priority 1987, dated 1989).
